Experimental data taken from US8435978B2, “Substituted sulfonamide compounds” (Gruenenthal GmbH, priority 2006, dated 2013).
Structures can show the parent of a compound that is named as a salt.

Key:
B1R receptor of the rat = target: T1, B1R receptor of the rat (Rattus norvegicus, UniProt P97583); assay: Functional study on the bradykinin receptor 1 (B1R), FLIPR Ca2+ assay, rB1R cells; type: cell-based; conditions: CHO-K1, test substance 10 μM, agonist Des-Arg9-bradykinin 100 nM, % inhibition compared with the maximum achievable inhibition, read-out: B1R Antagonism, rat [10 μM] % Inhibition
T1 construct: host or cells: CHO K1 cells (Chinese hamster ovary), stably transfected
T1 sequence (P97583 1-337): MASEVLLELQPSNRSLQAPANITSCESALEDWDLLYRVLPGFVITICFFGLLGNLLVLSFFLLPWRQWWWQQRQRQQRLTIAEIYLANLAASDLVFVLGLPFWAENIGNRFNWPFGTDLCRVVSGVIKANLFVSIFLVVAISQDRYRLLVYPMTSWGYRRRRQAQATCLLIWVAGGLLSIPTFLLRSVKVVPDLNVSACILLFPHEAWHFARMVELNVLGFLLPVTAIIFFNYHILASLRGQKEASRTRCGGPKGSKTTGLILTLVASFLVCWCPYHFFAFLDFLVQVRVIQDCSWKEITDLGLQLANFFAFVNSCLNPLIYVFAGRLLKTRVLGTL
Procedure, shortened: (§1)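 CHO K1 cells stably expressing human or rat B1R, Fluo-4-loaded; test compound 10 μM added first (activation % vs agonist), then after 10 min 0.5 nM Lys-Des-Arg9-bradykinin (human) or 100 nM Des-Arg9-bradykinin (rat). Ca2+ peak fluorescence by FLIPR; % inhibition relative to maximum achievable inhibition.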

human B1R receptor = target: T2, human B1R receptor (Homo sapiens, UniProt P46663); assay: Functional study on the bradykinin receptor 1 (B1R), FLIPR Ca2+ assay, hB1R cells; type: cell-based; conditions: CHO-K1, test substance 10 μM, agonist Lys-Des-Arg9-bradykinin 0.5 nM, % inhibition compared with the maximum achievable inhibition, read-out: B1R Antagonism, human [10 μM] % Inhibition
T2 construct: host or cells: CHO K1 cells (Chinese hamster ovary), stably transfected
T2 sequence (P46663 1-353): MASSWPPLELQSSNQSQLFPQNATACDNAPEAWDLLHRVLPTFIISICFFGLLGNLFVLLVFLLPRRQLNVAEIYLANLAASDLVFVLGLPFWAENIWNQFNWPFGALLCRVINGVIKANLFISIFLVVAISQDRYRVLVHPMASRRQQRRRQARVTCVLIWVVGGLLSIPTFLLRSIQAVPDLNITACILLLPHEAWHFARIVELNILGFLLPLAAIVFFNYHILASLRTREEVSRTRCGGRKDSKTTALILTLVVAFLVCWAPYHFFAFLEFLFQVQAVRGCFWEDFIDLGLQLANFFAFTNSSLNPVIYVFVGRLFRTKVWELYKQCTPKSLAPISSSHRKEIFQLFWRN
Procedure, shortened: as §1

| Compound | inhibition at 10 µM (B1R receptor of the rat) [%] | inhibition at 10 µM (human B1R receptor) [%] |
| --- | --- | --- |
| CCN(CC)CCN(CCN(CC)CC)C(=O)COCC1Cc2ccccc2CN1S(=O)(=O)c1ccc(Cl)c(Cl)c1 (stereo not drawn) [Example 43, 2-[2-(3,4-dichloro-phenylsulfonyl)-1,2,3,4-tetrahydro-isoquinolin-3-ylmethoxy]-N,N-bis-(2-diethylamino-ethyl)-acetamide] | 24.2 | 69.9 |
| COc1cc(C)c(S(=O)(=O)N2CCCCC2COCC(=O)N(C)C(CN2CCCC2)c2ccccc2)c(C)c1 (stereo not drawn) [Example 241, 2-((1-(4-methoxy-2,6-dimethylphenylsulfonyl)piperidin-2-yl)methoxy)-N-methyl-N-(1-phenyl-2-(pyrrolidin-1-yl)ethyl)acetamide] | 99.3 | 104 |
| Cc1cc(C)c(S(=O)(=O)N2Cc3ccccc3CC2COCC(=O)NCc2cccc(N3CCOCC3)c2)c(C)c1 (stereo not drawn) [Example 50, N-(3-morpholin-4-yl-benzyl)-2-[2-(2,4,6-trimethyl-phenylsulfonyl)-1,2,3,4-tetrahydro-isoquinolin-3-ylmethoxy]-acetamide] | 50.3 | 65.7 |
| CN1CCC(N2CCN(C(=O)COCC3CCCCN3S(=O)(=O)c3c(Cl)nc4sccn34)CC2)CC1 (stereo not drawn) [Example 129, 2-((1-(6-chloroimidazo[2,1-b]thiazol-5-ylsulfonyl)piperidin-2-yl)methoxy)-1-(4-(1-methylpiperidin-4-yl)piperazin-1-yl)ethanone] | 31.2 | 0.03 |
| COc1cc(C)c(S(=O)(=O)N2CCCCC2COCC(=O)N2CCCCCC2c2ccc(N(C)C)cc2)c(C)c1 (stereo not drawn) [Example 400, 1-(2-(4-(dimethylamino)phenyl)azepan-1-yl)-2-((1-(4-methoxy-2,6-dimethylphenylsulfonyl)piperidin-2-yl)methoxy)ethanone] | 102 | 62 |
| COc1cc(C)c(S(=O)(=O)N2CCCCC2COCC(=O)N2CCN(C3CCC(C(F)(F)F)CC3)CC2)c(C)c1 (stereo not drawn) [Example 134, 2-((1-(4-methoxy-2,6-dimethylphenylsulfonyl)piperidin-2-yl)methoxy)-1-(4-(4-(trifluoromethyl)cyclohexyl)piperazin-1-yl)ethanone] | 98.2 | 102 |
| Cc1cc(C)c(S(=O)(=O)N2CCCCC2COCC(=O)N2CCC(N3CCCC3)CC2)c(C)c1 (stereo not drawn) [Example 19, 2-((1-(mesitylsulfonyl)piperidin-2-yl)methoxy)-1-(4-(pyrrolidin-1-yl)piperidin-1-yl)-ethanone] | 98.9 | 95 |
| COc1cc(C)c(S(=O)(=O)N2CCCC[C@@H]2COCC(=O)N2CCN(C3CCN(C)CC3)CC2)c(C)c1 [Example 177, (R)-2-((1-(4-methoxy-2,6-dimethylphenylsulfonyl)piperidin-2-yl)methoxy)-1-(4-(1-methylpiperidin-4-yl)piperazin-1-yl)ethanone dihydrochloride] | 100 | 104 |
| COc1cc(C)c(S(=O)(=O)N2CCCC2COCC(=O)N2CCN(c3cc(Cl)ccc3C)CC2)c(C)c1 (stereo not drawn) [Example 311, 1-(4-(5-chloro-2-methylphenyl)piperazin-1-yl)-2-((1-(4-methoxy-2,6-dimethylphenylsulfonyl)pyrrolidin-2-yl)methoxy)ethanone] | 103 | 94.9 |
| COc1ccc(S(=O)(=O)N2Cc3ccccc3C[C@H]2COCC(=O)N2CCN(CC3CCN(C)CC3)CC2)cc1 [Example 189, (S)-2-((2-(4-methoxyphenylsulfonyl)-1,2,3,4-tetrahydroisoquinolin-3-yl)methoxy)-1-(4-((1-methylpiperidin-4-yl)methyl)piperazin-1-yl)ethanone dihydrochloride] | 86.4 | 70.7 |
| CN1CCC(N2CCN(C(=O)COCC3CCCCN3S(=O)(=O)c3cccc4cnccc34)CC2)CC1 (stereo not drawn) [Example 176, 2-((1-(isoquinolin-5-ylsulfonyl)piperidin-2-yl)methoxy)-1-(4-(1-methylpiperidin-4-yl)piperazin-1-yl)ethanone dihydrochloride] | 36.5 | -24.8 |
| O=C(COCC1CCCN1S(=O)(=O)c1c(Cl)cc(Cl)cc1Cl)NCc1ccc(CN2CCCCC2)cc1 (stereo not drawn) [Example 10, N-(4-piperidin-1-ylmethyl-benzyl)-2-[1-(2,4,6-trichloro-phenylsulfonyl)-pyrrolidin-2-ylmethoxy]-acetamide] | 91.8 | 100 |
| COc1cc(C)c(S(=O)(=O)N2CCCCC2COCC(=O)N2CCN(C)CC2c2ccccc2)c(C)c1 (stereo not drawn) [Example 388, 2-((1-(4-methoxy-2,6-dimethylphenylsulfonyl)piperidin-2-yl)methoxy)-1-(4-methyl-2-phenylpiperazin-1-yl)ethanone] | 101 | 22.9 |
| O=C(COCC1CCCCN1S(=O)(=O)c1ccc(Cl)c(Cl)c1)N1CCOC(CN2CCCCC2)C1 (stereo not drawn) [Example 266, 2-((1-(3,4-dichlorophenylsulfonyl)piperidin-2-yl)methoxy)-1-(2-(piperidin-1-ylmethyl)morpholino)ethanone] | 2.12 | 102 |
| CN1CCN(Cc2ccc(CNC(=O)COCC3CCCCN3S(=O)(=O)c3c(Cl)cc(Cl)cc3Cl)cc2)CC1 (stereo not drawn) [Example 15, N-[4-(4-methyl-piperazin-1-ylmethyl)-benzyl]-2-[1-(2,4,6-trichloro-phenylsulfonyl)-piperidin-2-ylmethoxy]-acetamide] | 92.5 | 96 |
| CN1CCC(N2CCN(C(=O)COCC3CCCN3S(=O)(=O)c3ccc(Cl)c(Cl)c3)CC2)CC1 (stereo not drawn) [Example 62, 2-[1-(3,4-dichloro-phenylsulfonyl)-pyrrolidin-2-ylmethoxy]-1-[4-(1-methyl-piperidin-4-yl)-piperazin-1-yl]-ethanone] | 34 | 59.6 |

Next, values leading:

| inhibition at 10 µM (B1R receptor of the rat) [%] | inhibition at 10 µM (human B1R receptor) [%] | Compound |
| --- | --- | --- |
| 98.1 | 97.7 | CN1CCC(N2CCN(C(=O)COCC3CCCN3S(=O)(=O)c3c(Cl)cc(C(F)(F)F)cc3Cl)CC2)CC1 (stereo not drawn) [Example 570, 2-((1-(2,6-dichloro-4-(trifluoromethyl)phenylsulfonyl)pyrrolidin-2-yl)methoxy)-1-(4-(1-methylpiperidin-4-yl)piperazin-1-yl)ethanone] |
| 102 | 101 | O=C(COCC1CCCCN1S(=O)(=O)c1c(Cl)cccc1Cl)NC1CCN(Cc2ccccc2)CC1 (stereo not drawn) [Example 488, N-(1-benzylpiperidin-4-yl)-2-((1-(2,6-dichlorophenylsulfonyl)piperidin-2-yl)methoxy)acetamide] |
| 104 | 72.6 | O=C(COCC1CCCCN1S(=O)(=O)c1c(Cl)cccc1Cl)N1CCN(c2cccc(C(F)(F)F)c2)CC1 (stereo not drawn) [Example 481, 2-((1-(2,6-dichlorophenylsulfonyl)piperidin-2-yl)methoxy)-1-(4-(3-(trifluoromethyl)phenyl)piperazin-1-yl)ethanone] |
| 107 | 63.1 | COc1cc(C)c(S(=O)(=O)N2CCCCC2COCC(=O)Nc2cc(-c3ccccc3)[nH]n2)c(C)c1 (stereo not drawn) [Example 536, 2-((1-(4-methoxy-2,6-dimethylphenylsulfonyl)piperidin-2-yl)methoxy)-N-(5-phenyl-1H-pyrazol-3-yl)acetamide] |
| 107 | 104 | COc1cc(C)c(S(=O)(=O)N2CCCCC2COCC(=O)N2CCCCC2CCN2CCOCC2)c(C)c1 (stereo not drawn) [Example 534, 2-((1-(4-methoxy-2,6-dimethylphenylsulfonyl)piperidin-2-yl)methoxy)-1-(2-(2-morpholinoethyl)piperidin-1-yl)ethanone] |
| 103 | 87 | COc1cc(C)c(S(=O)(=O)N2CCCCC2COCC(=O)N2CCN(c3cccc(Cl)c3)CC2)c(C)c1 (stereo not drawn) [Example 511, 1-(4-(3-chlorophenyl)piperazin-1-yl)-2-((1-(4-methoxy-2,6-dimethylphenylsulfonyl)piperidin-2-yl)methoxy)ethanone] |
| 99.1 | 101 | Cc1ccc2[nH]c(C3CCN(C(=O)COCC4CCCCN4S(=O)(=O)c4c(Cl)cccc4Cl)CC3)nc2c1 (stereo not drawn) [Example 487, 2-((1-(2,6-dichlorophenylsulfonyl)piperidin-2-yl)methoxy)-1-(4-(5-methyl-1H-benzo[d]imidazol-2-yl)piperidin-1-yl)ethanone] |
| 90.6 | 24.2 | COc1cc(C)c(S(=O)(=O)N2CCCC2COCC(=O)Nc2nc3ccccc3n2C)c(C)c1 (stereo not drawn) [Example 504, 2-((1-(4-methoxy-2,6-dimethylphenylsulfonyl)pyrrolidin-2-yl)methoxy)-N-(1-methyl-1H-benzo[d]imidazol-2-yl)acetamide] |
